Reference: EPA's ToxValDB 9.5 (doi:10.2903/j.efsa.2008.119r)

Columns and labels:
[1] = tested on: Bibionidae; settings: chronic/long-term; duration: 28 days
[2] = tested on: Coturnix japonica; settings: reproduction developmental
[3] = tested on: Daphnia magna; settings: chronic/long-term; duration: 21 days; reproduction
[4] = tested on: Mus musculus; settings: chronic; duration: 2 years; hematological
[5] = tested on: Oncorhynchus mykiss; settings: chronic/long-term; duration: 21 days; growth
[6] = tested on: Oryctolagus sp.; settings: reproduction developmental; mortality
[7] = tested on: Rattus norvegicus
[8] = tested on: Tagia sp.; settings: chronic/long-term; duration: 56 days
[9] = tested on: Typhlodromus pyri; settings: not reported; mortality

SMILES: COC(=O)c1cc(Oc2ccc(Cl)cc2Cl)ccc1[N+](=O)[O-] [Bifenox]
- NOEC [1]: 0.015 mg/L
- NOEC [2]: 290 mg/kg-day
- NOEC [3]: 0.00015 mg/L
- NOAEL [4]: 30 mg/kg-day
- NOEC [5]: 0.0091 mg/L
- NOAEL [6]: 50 mg/kg-day
- NOAEL ([7]; chronic): 16 mg/kg-day
- NOAEL ([7]; reproduction developmental, reproduction): 44.5 mg/kg-day
- NOEC [8]: 5.1 mg/kg
- LEL [9]: 720 g/ha
